Target: T1, Dihydropteroate synthase (DHPS) (Streptococcus pneumoniae, UniProt P05382)
T1 construct: gene sulA; dimer; immobilized on PEMA or POMA coated glass
Test: competitive hydrogel microparticle (SCP) binding assay, RICM contact area
Details: DHPS immobilized on PEMA-coated glass; 0.1 M MOPS pH 6.0, 5 mM MgCl2, 600 uM pyrophosphate, room temperature; competes with SMX derivative on microparticles

T1 sequence (P05382 whole entry): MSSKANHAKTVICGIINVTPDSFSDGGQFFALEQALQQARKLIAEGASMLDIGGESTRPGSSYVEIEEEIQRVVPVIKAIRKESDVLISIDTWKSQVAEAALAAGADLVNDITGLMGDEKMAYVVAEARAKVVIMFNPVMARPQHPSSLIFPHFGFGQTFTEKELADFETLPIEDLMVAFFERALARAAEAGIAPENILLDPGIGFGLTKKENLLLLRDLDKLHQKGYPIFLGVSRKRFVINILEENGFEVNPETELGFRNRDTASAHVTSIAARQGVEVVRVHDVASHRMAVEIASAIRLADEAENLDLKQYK

Cc1cc(NS(=O)(=O)c2ccc(N)cc2)no1 [SMX, sulfamethoxazole]
% decrease of SCP contact area diameter at 1 mM: > 50%

Source: paper PMC11440465, “Detection of Sulfonamide Antibiotics Using an Elastic Hydrogel Microparticles-Based Optical Biosensor” (ACS Applied Materials & Interfaces, 2024)
